Here are results for 32 compounds from US9512107B2, “Therapeutically active compositions and their methods of use” (Agios Pharmaceuticals, Inc., priority 2012, dated 2016).

Each structure is given as a SMILES string.

In the first experiment the target is T1, IDH2 R140Q (Homo sapiens, UniProt P48735, R140Q).
T1 sequence (P48735 40-452 R140Q): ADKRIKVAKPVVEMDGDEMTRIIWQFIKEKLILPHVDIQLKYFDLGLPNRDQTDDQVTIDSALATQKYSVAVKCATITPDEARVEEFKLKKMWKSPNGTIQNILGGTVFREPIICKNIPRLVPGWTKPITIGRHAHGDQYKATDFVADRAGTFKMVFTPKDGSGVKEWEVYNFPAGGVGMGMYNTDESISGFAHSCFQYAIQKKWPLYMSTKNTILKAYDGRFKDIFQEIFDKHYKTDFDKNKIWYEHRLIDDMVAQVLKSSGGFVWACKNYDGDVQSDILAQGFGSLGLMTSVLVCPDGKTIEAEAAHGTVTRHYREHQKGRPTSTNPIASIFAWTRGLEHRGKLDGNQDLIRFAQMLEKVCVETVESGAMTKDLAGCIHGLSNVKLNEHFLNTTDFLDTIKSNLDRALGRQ
As to the kind of experiment: IDH2 R140Q enzymatic assay (cofactor depletion, similar format). The experiment is classed as biochemical.
Details: not given
The procedure: [The source words this procedure for another variant and says it was used here with some conditions changed.] Compounds are assayed for IDH2 R172K inhibitory activity through a cofactor depletion assay. […] The reaction is terminated by the addition of a second enzyme, diaphorase, and a corresponding substrate, resazurin. Diaphorase reduces resazurin to the highly fluorescent resorufin with the concomitant oxidation of NADPH to NADP, both halting the IDH2 reaction by depleting the available cofactor pool and facilitating quantitation of the amount of cofactor remaining after a specific time period through quantitative production of an easily detected fluorophore.
The test compound is then incubated for one hour at room temperature with the enzyme; before starting the IDH2 reaction with the addition of 10 μl of substrate mix containing 50 μM NADPH and 6.3 mM α-KG in the buffer described above. After a further one hour of incubation at room temperature, the reaction is halted and the remaining NADPH measured through conversion of resazurin to resorufin by the addition of 25 μl Stop Mix (36 μg/ml diaphorase enzyme and 60 μM resazurin; in buffer).
Turning to `CC(CO)Nc1nc(Nc2ccncc2)nc(-c2ccccc2)n1` (stereo not shown) [Compound 278, 2-(4-phenyl-6-(pyridin-4-ylamino)-1,3,5-triazin-2-ylamino)propan-1-ol], the “Enz R140Q” value is given as “No Fit”.
Same read-out and setting: the value for `O[C@H]1CC[C@@H](Nc2nc(Nc3ccncc3)nc(-c3ccccc3)n2)C1` [Compound 283, (1S,3R)-3-(4-phenyl-6-(pyridin-4-ylamino)-1,3,5-triazin-2-ylamino)cyclopentanol] was “No Fit”.
Still for that read-out and setting: the value for `c1ccc(-c2nc(NCC3CNCCO3)nc(Nc3ccncc3)n2)cc1` (stereo not shown) [Compound 234, N^2-(morpholin-2-ylmethyl)-6-phenyl-N^4-(pyridin-4-yl)-1,3,5-triazine-2,4-diamine] was “No Fit”.
Still for that read-out and setting: the value for `OC1CCCCC1Nc1nc(Nc2ccncc2)nc(-c2ccccc2)n1` (stereo not shown) [Compound 282, 2-(4-phenyl-6-(pyridin-4-ylamino)-1,3,5-triazin-2-ylamino)cyclohexanol] was “No Fit”; that for `CC(O)CNc1nc(Nc2ccncc2)nc(-c2ccccc2)n1` (stereo not shown) [Compound 271, 1-(4-phenyl-6-(pyridin-4-ylamino)-1,3,5-triazin-2-ylamino)propan-2-ol] was “No Fit”.

Still in this experiment, the particulars now being: read-out: Enz R140Q.
Regarding `Cc1cc(Nc2nc(NC(C)C)nc(-c3ccccc3)n2)cc(C)n1` [Compound 310, N^2-(2,6-dimethylpyridin-4-yl)-N^4-isopropyl-6-phenyl-1,3,5-triazine-2,4-diamine], the IC50 is 0.1 to 1 µM.
Same read-out and setting: the value for `CN(C)C(=O)Nc1nc(Nc2ccccc2)nc(-c2ccccc2)n1` [Compound 182, 1,1-dimethyl-3-(4-phenyl-6-(phenylamino)-1,3,5-triazin-2-yl)urea] was 0.1 to 1 µM; that for `CC(C)Nc1nc(Nc2cccc(S(=O)(=O)N3CCC3)c2)nc(-c2ccccc2)n1` [Compound 376, N^2-(3-(azetidin-1-ylsulfonyl)phenyl)-N^4-isopropyl-6-phenyl-1,3,5-triazine-2,4-diamine] was 0.1 to 1 µM; that for `CC(C)Nc1nc(Nc2ccnc(F)c2)nc(-c2cccc(Cl)n2)n1` [Compound 384, 6-(6-chloropyridin-2-yl)-N^2-(2-fluoropyridin-4-yl)-N^4-isopropyl-1,3,5-triazine-2,4-diamine] was 0.1 to 1 µM.
On the same count and under the same terms, the value for `CC(C)(O)CNc1nc(Nc2cncc(F)c2)nc(-c2cccc(Cl)n2)n1` [Compound 390, 1-(4-(6-chloropyridin-2-yl)-6-(5-fluoropyridin-3-ylamino)-1,3,5-triazin-2-ylamino)-2-methylpropan-2-ol] was 1 to 10 µM; that for `CC(C)Nc1nc(Nc2ccnc(C(F)(F)F)c2)nc(-c2cccc(Cl)n2)n1` [Compound 396, 6-(6-chloropyridin-2-yl)-N^2-isopropyl-N4-(2-(trifluoromethyl)pyridin-4-yl)-1,3,5-triazine-2,4-diamine] was 0.1 to 1 µM.
The same measure, in the same setting: the value for `O=C(Nc1nc(Nc2ccccc2)nc(-c2ccccc2)n1)C1CCOC1` (stereo not shown) [Compound 415, N-(4-phenyl-6-(phenylamino)-1,3,5-triazin-2-yl)tetrahydrofuran-3-carboxamide] was above 10 µM; that for `c1ccc(-c2nc(Nc3ccncc3)nc(NC3CCCOC3)n2)cc1` (stereo not shown) [Compound 273, 6-phenyl-N^2-(pyridin-4-yl)-N^4-(tetrahydro-2H-pyran-3-yl)-1,3,5-triazine-2,4-diamine] was above 10 µM.
On to `OC1CCC(Nc2nc(Nc3ccncc3)nc(-c3ccccc3)n2)CC1` (stereo not shown) [Compound 256, 4-(4-phenyl-6-(pyridin-4-ylamino)-1,3,5-triazin-2-ylamino)cyclohexanol], for which the IC50 was 1 to 10 µM.
Still for that read-out and setting: the value for `O=C(CO)Nc1nc(Nc2ccccc2)nc(-c2ccccc2)n1` [Compound 348, 2-hydroxy-N-(4-phenyl-6-(phenylamino)-1,3,5-triazin-2-yl)acetamide] was above 10 µM.
For `O=C1CCC(C(=O)Nc2nc(Nc3ccccc3)nc(-c3ccccc3)n2)N1` (stereo not shown) [Compound 413, 5-oxo-N-(4-phenyl-6-(phenylamino)-1,3,5-triazin-2-yl)pyrrolidine-2-carboxamide], the IC50 is above 10 µM.
For the compound `O=C(Nc1nc(Nc2ccccc2)nc(-c2ccccc2)n1)c1ccn[nH]1` [Compound 347, N-(4-phenyl-6-(phenylamino)-1,3,5-triazin-2-yl)-1H-pyrazole-5-carboxamide], the IC50 was 0.1 to 1 µM.
The same measure, in the same setting: the value for `c1ccc(-c2nc(Nc3ccncc3)nc(NC3CCCC3)n2)cc1` [Compound 287, N^2-cyclopentyl-6-phenyl-N^4-(pyridin-4-yl)-1,3,5-triazine-2,4-diamine] was 0.1 to 1 µM.
Still for that read-out and setting: the value for `c1ccc(-c2nc(NCC3CCCO3)nc(Nc3ccncc3)n2)cc1` (stereo not shown) [Compound 222, 6-phenyl-N^2-(pyridin-4-yl)-N^4-((tetrahydrofuran-2-yl)methyl)-1,3,5-triazine-2,4-diamine] was 0.1 to 1 µM; that for `c1ccc(-c2nc(Nc3ccncc3)nc(NC3CCOCC3)n2)cc1` [Compound 258, 6-phenyl-N^2-(pyridin-4-yl)-N^4-(tetrahydro-2H-pyran-4-yl)-1,3,5-triazine-2,4-diamine] was 1 to 10 µM.
`CC(C)Nc1nc(Nc2ccccc2)nc(-c2ccc(C#N)cc2)n1` [Compound 108]: the IC50 lay within 0.1 to 1 µM.
On the same count and under the same terms, the value for `O=C1CC(Nc2nc(Nc3ccncc3)nc(-c3ccccc3)n2)C1` [Compound 276, 3-(4-phenyl-6-(pyridin-4-ylamino)-1,3,5-triazin-2-ylamino)cyclobutanone] was 0.1 to 1 µM; that for `N#CC1(Nc2nc(Nc3ccncc3)nc(-c3ccccc3)n2)CC1` [Compound 285, 1-(4-phenyl-6-(pyridin-4-ylamino)-1,3,5-triazin-2-ylamino)cyclopropanecarbonitrile] was 1 to 10 µM; that for `CC1(Nc2nc(Nc3ccncc3)nc(-c3ccccc3)n2)COC1` [Compound 251, N^2-(3-methyloxetan-3-yl)-6-phenyl-N^4-(pyridin-4-yl)-1,3,5-triazine-2,4-diamine] was 0.1 to 1 µM.
Same read-out and setting: the value for `CC(C)(C)C(CO)Nc1nc(Nc2ccncc2)nc(-c2ccccc2)n1` (stereo not shown) [Compound 286, 3,3-dimethyl-2-(4-phenyl-6-(pyridin-4-ylamino)-1,3,5-triazin-2-ylamino)butan-1-ol] was above 10 µM; that for `c1ccc(-c2nc(NCC3CCO3)nc(Nc3ccncc3)n2)cc1` (stereo not shown) [Compound 264, N^2-(oxetan-2-ylmethyl)-6-phenyl-N^4-(pyridin-4-yl)-1,3,5-triazine-2,4-diamine] was 1 to 10 µM; that for `O=C(Nc1nc(Nc2ccccc2)nc(-c2ccccc2)n1)C1(O)CC1` [Compound 412, 1-hydroxy-N-(4-phenyl-6-(phenylamino)-1,3,5-triazin-2-yl)cyclopropanecarboxamide] was 1 to 10 µM.
Same read-out and setting: the value for `CC#Cc1cccc(-c2nc(Nc3cccc(S(C)(=O)=O)c3)nc(NC(C)C)n2)n1` [Compound 365, N^2-isopropyl-N^4-(3-(methylsulfonyl)phenyl)-6-(6-(prop-1-ynyl)pyridin-2-yl)-1,3,5-triazine-2,4-diamine] was 1 to 10 µM; that for `c1ccc(-c2nc(Nc3ccncc3)nc(NC3CCCCC3)n2)cc1` [Compound 280, N^2-cyclohexyl-6-phenyl-N^4-(pyridin-4-yl)-1,3,5-triazine-2,4-diamine] was above 10 µM; that for `CC(C)C(CO)Nc1nc(Nc2ccncc2)nc(-c2ccccc2)n1` (stereo not shown) [Compound 279, 3-methyl-2-(4-phenyl-6-(pyridin-4-ylamino)-1,3,5-triazin-2-ylamino)butan-1-ol] was above 10 µM.
For `CCNC(=O)Nc1nc(Nc2ccccc2)nc(-c2ccccc2)n1` [Compound 207, 1-ethyl-3-(4-phenyl-6-(phenylamino)-1,3,5-triazin-2-yl)urea], the IC50 was 0.1 to 1 µM.
On the same count and under the same terms, the value for `COC(C)CNc1nc(Nc2ccncc2)nc(-c2ccccc2)n1` (stereo not shown) [Compound 274, N^2-(2-methoxypropyl)-6-phenyl-N^4-(pyridin-4-yl)-1,3,5-triazine-2,4-diamine] was above 10 µM.

Another experiment concerns U87MG pLVX-IDH2 R140Q-neo cells. As to the kind of experiment: U87MG pLVX-IDH2 R140Q-neo cell based assay, 2-HG in media by LC-MS at 48 hours. To be noted: Homo sapiens, U-87 MG. The procedure: U87MG pLVX-IDH2 R140Q-neo cells are grown in T125 flasks in DMEM containing 10% FBS, 1× penicillin/streptomycin and 500 μg/mL G418. They are harvested by trypsin and seeded into 96 well white bottom plates at a density of 5000 cell/well in 100 μl/well in DMEM with 10% FBS. No cells are plated in columns 1 and 12. Cells are incubated overnight at 37° C. in 5% CO2. The next day compounds are made up at 2× concentration and 100 ul are added to each cell well. The final concentration of DMSO is 0.2% and the DMSO control wells are plated in row G. The plates are then placed in the incubator for 48 hours. At 48 hours, 100 ul of media is removed from each well and analyzed by LC-MS for 2-HG concentrations. The cell plate is placed back in the incubator for another 24 hours. At 72 hours post compound addition, 10 mL/plate of Promega Cell Titer Glo reagent is thawed and mixed. The cell plate is removed from the incubator and allowed to equilibrate to room temperature. Then 100 ul of reagent is added to each well of media. The cell plate is then placed on an orbital shaker for 10 minutes and then allowed to sit at room temperature for 20 minutes. The plate is then read for luminescence with an integration time of 500 ms to determine compound effects on growth inhibition.
For the compound `Cc1cc(Nc2nc(NC(C)C)nc(-c3ccccc3)n2)cc(C)n1` [Compound 310, N^2-(2,6-dimethylpyridin-4-yl)-N^4-isopropyl-6-phenyl-1,3,5-triazine-2,4-diamine], the IC50 was below 0.1 µM.
On the same count and under the same terms, the value for `CC(C)Nc1nc(Nc2cccc(S(=O)(=O)N3CCC3)c2)nc(-c2ccccc2)n1` [Compound 376, N^2-(3-(azetidin-1-ylsulfonyl)phenyl)-N^4-isopropyl-6-phenyl-1,3,5-triazine-2,4-diamine] was below 0.1 µM; that for `CC(C)Nc1nc(Nc2ccnc(F)c2)nc(-c2cccc(Cl)n2)n1` [Compound 384, 6-(6-chloropyridin-2-yl)-N^2-(2-fluoropyridin-4-yl)-N^4-isopropyl-1,3,5-triazine-2,4-diamine] was below 0.1 µM.
On to `CC(C)(O)CNc1nc(Nc2cncc(F)c2)nc(-c2cccc(Cl)n2)n1` [Compound 390, 1-(4-(6-chloropyridin-2-yl)-6-(5-fluoropyridin-3-ylamino)-1,3,5-triazin-2-ylamino)-2-methylpropan-2-ol], for which the IC50 was in the range of 0.1 to 1 µM.
Still for that read-out and setting: the value for `CC(C)Nc1nc(Nc2ccnc(C(F)(F)F)c2)nc(-c2cccc(Cl)n2)n1` [Compound 396, 6-(6-chloropyridin-2-yl)-N^2-isopropyl-N4-(2-(trifluoromethyl)pyridin-4-yl)-1,3,5-triazine-2,4-diamine] was below 0.1 µM.
